Results taken from PubChem BioAssay (NCI).
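Cultured in 96-well plates, cells were exposed to test compound for 48 hours across five concentrations. Here, GI50 denotes the concentration required for 50% inhibition of growth. TGI is the concentration that stops growth completely.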

Legend:
Test in all cases: inhibition of tumour cell growth, NCI panel, 48 h
[1] = system: COLO 205 colon
[2] = system: HOP-92 NSCLC
[3] = system: HOP-62 NSCLC
[4] = system: IGROV1 ovarian
[5] = system: CAKI-1 renal
[6] = system: NCI-H23 lung
[7] = system: RPMI-8226 leukemia
[8] = system: SNB-19 CNS
[9] = system: SF-539 CNS
[10] = system: HCC-2998 colon
[11] = system: RXF 393 renal
[12] = system: A549 NSCLC
[13] = system: TK-10 renal

Structure (SMILES)	TGI [1] [µM]	TGI [2] [µM]	TGI [3] [µM]	TGI [4] [µM]	TGI [5] [µM]	TGI [6] [µM]	TGI [7] [µM]	TGI [8] [µM]	TGI [9] [µM]	TGI [10] [µM]	TGI [11] [µM]	TGI [12] [µM]	TGI [13] [µM]	GI50 [2] [µM]	GI50 [5] [µM]	GI50 [6] [µM]	GI50 [9] [µM]	GI50 [10] [µM]	GI50 [11] [µM]
Oc1c2c(c3c4c1N=CC=4CCN=3)C1(C=C(Br)C(O)C(Br)=C1)CCN2 (stereo not drawn)	0.418	8.08	33.4	2.86	29.3	2.64	7.41	> 34.8	4.17	4.61	7.57	12.5	–	–	–	–	–	–	–
CCN(CC)CCOCC1CCCN2CCCCC12 (stereo not drawn)	> 100	> 100	> 100	–	> 100	> 100	> 100	> 100	> 100	> 100	> 100	> 100	> 100	–	–	–	–	–	–
CCCC(=O)[O-].CCCC(=O)[O-].N.N.N.N.[Co+3].[O-][Cl+3]([O-])([O-])[O-]	> 100	> 100	> 100	> 100	–	> 100	> 100	> 100	> 100	> 100	–	> 100	> 100	–	–	–	–	–	–
Cc1n(-c2ccccc2)c2c([n+]1Cc1ccc([N+](=O)[O-])cc1)C(=O)c1ccccc1C2=O	3.07	4.3	16.6	2.23	39.7	5.22	3.82	3.22	3.88	4.2	21.5	10.7	19.3	–	–	–	–	–	–
Cc1cc(=O)[nH]c(NN2C(Cl)C(=O)C2c2c(O)ccc3ccccc23)n1 (stereo not drawn)	58.2	34.5	77	> 100	–	39.7	53.5	77.6	41.1	32.6	26.6	> 100	> 100	–	–	–	–	–	–
COc1cc(O)c2c(c1O)C(=O)c1cc(C)ncc1C2=O	> 50	–	> 50	> 50	–	27.2	> 50	> 50	> 50	> 50	> 50	> 50	> 50	–	–	–	–	–	–
CCCCCCCSCC1OC(n2cnc3c(N)ncnc32)C(O)C1O (stereo not drawn)	28.3	58	–	41.8	19.5	> 100	69	> 100	> 100	66.9	> 100	> 100	> 100	–	–	–	–	–	–
C[N+]1(CCCC[N+]2(C)CCCCCCC2)CCCCCCC1	–	> 100	> 100	> 100	> 100	> 100	> 100	> 100	–	–	> 100	> 100	> 100	–	–	–	–	–	–
NS(=O)(=O)c1ccc(N=Nc2nc3[nH]cnc(=S)c3[nH]2)cc1	7.09	> 100	> 51.1	> 100	> 100	14.2	6.53	> 100	34.4	2.83	> 22.1	> 89.6	19.3	–	–	–	–	–	–
Cc1n(CC(C)C)c2c([n+]1CC(=O)c1ccc([N+](=O)[O-])cc1)C(=O)c1ccccc1C2=O	< 0.01	0.128	1.15	0.0102	1.13	< 0.0142	0.757	0.104	< 0.0387	1.18	–	0.933	–	–	–	–	–	–	–
OCCN1CCN(c2nc(Nc3ccc(-c4nc5ccccc5[nH]4)cc3)c3cn[nH]c3n2)CC1	–	2.91	–	–	3.13	3.54	–	–	3.08	3.33	2.85	–	–	1.41	1.72	1.83	1.7	1.74	1.43
Nc1nc(Sc2ccc([N+](=O)[O-])cn2)c2[nH]cnc2n1	39	38.7	> 100	77.9	71.7	31.2	> 100	72.1	> 100	96.8	> 30.4	62.1	> 100	–	–	–	–	–	–
C=CCCCCn1c2ccccc2c2c(C)c3c[n+](C)ccc3c(C)c21	1.08	0.783	1.94	1.4	39	–	1.43	1.73	1.83	–	2.11	4.52	6.89	–	–	–	–	–	–
NC(N)=NCCCC(NCc1c2ccccc2[n+]([O-])c2ccccc12)C(=O)O (stereo not drawn)	> 100	–	> 100	> 100	> 100	> 100	96.2	> 100	–	> 100	–	> 100	> 100	–	–	–	–	–	–
Clc1ccc2c(Cl)nc(-c3ccccc3)nc2c1	> 100	–	> 100	> 100	97.3	35.9	55.3	> 100	–	> 100	71.2	–	> 100	–	–	–	–	–	–
